Measured values taken from publication PMC9636434, “Discovery of small molecule agonists of the Relaxin Family Peptide Receptor 2” (Communications Biology, 2022).
“And” between values parts separate entries of the source, which are not always exact repeats. Equal values may be shown once. “Also recorded” adds a separate entry of the source. Read-outs that look alike come from different tables or passages of the source.

Columns and labels:
[1] = system: chimera RXFP2-1 (extracellular domain of RXFP2, transmembrane domain of RXFP1); assay: HTRF cAMP assay in HEK293T cells transiently transfected with chimera RXFP2-1; format: cell-based, human
Procedure: Fig. 2 6641 is an allosteric agonist of RXFP2. a HEK-RXFP2 cells co-treated with serial dilutions of INSL3 B dimer antagonist and 30 nM INSL3 or 0.28 µM 6641. HTRF cAMP dose-response inhibition curves were normalized to activity without antagonist co-treatment as 0% inhibition. b HTRF cAMP assay in HEK293T cells transiently transfected with WT or chimeric receptors. Chimera RXFP2-1 contains the extracellular domain of RXFP2 and the transmembrane domain of RXFP1, while chimera RXFP1-2 contains the extracellular domain of RXFP1 and the transmembrane domain of RXFP2. For each receptor, cAMP response induced by INSL3 and 6641 was normalized to FSK (2 µM) as 100% efficacy and DMSO vehicle as 0% efficacy. Emax and EC50 were calculated using four parameter nonlinear fit dose-response curves. Results are expressed as mean ± SEM of 3 independent experiments. Diagrams of the chimeric receptors were produced using GPCRdb.org[58], [59].
Complementary RXFP2-1 and RXFP1-2 chimeric receptors were used to further investigate the involvement of the RXFP2 extracellular and transmembrane domains on 6641 activity. RXFP2-1 has the extracellular domain of RXFP2 and transmembrane domain of RXFP1, and RXFP1-2 is its complement.
The HTRF Gs dynamic cAMP assay kit (CisBio, Bedford, MA) was used to measure intracellular cAMP accumulation in HEK293T cells (ATCC, Manassas, VA)[56]. […] The cell stock was verified mycoplasma free and authenticated by ATCC. Transient transfection was accomplished by treating cells in a 6-well plate with a mixture of 2 μg plasmid and 6 μL Lipofectamine 2000 (Invitrogen, Waltham, MA) per manufacturer’s protocol and incubating overnight. For cAMP measurement in 96-well format, HEK293T cells stably transfected with human RXFP2 (HEK-RXFP2), human RXFP1 (HEK-RXFP1), mouse Rxfp1 (HEK-Rxfp1) or transiently transfected with human RXFP1-RXFP2 chimeric receptors were seeded between 7500 and 30,000 cells per well, depending on cell line responsiveness, in serum-free DMEM medium and incubated overnight at 37 °C, 5% CO2. After 18 h, cells were treated with a titration of compound, 2 μM forskolin, or DMSO vehicle. Control wells were also treated with a titration of INSL3 (Phoenix Pharmaceuticals, Burlingame, CA) or human recombinant relaxin 2 (Peprotech, Cranbury, NJ). For the RXFP2 antagonist experiment, cells were co-treated with 0.28 μM compound or 30 nM INSL3 and a titration of the INSL3 B dimer antagonist[38],[39]. For the INSL3 allosteric modulation experiment, cells were co-treated with 0.025, 0.0025, or 0.00025 μM of compound and a titration of INSL3. […] Plates were incubated for 1 h at room temperature and the signal was read on a CLARIOstar plate reader (BMG Labtech, Ortenberg, Germany) at 665 and 620 nm emission wavelengths.

[2] = system: osteoblast markers Alp, Col1a1, Osteocalcin, Runx2; assay: Quantitative RT-PCR of osteoblast markers in tibia after 8-week oral treatment; format: in vivo, mouse; details: normalized to control group, 10 mg/kg PO, 8 weeks, individual mice
[3] = 10 mg/kg PO 3 times per week, 8 weeks

With O=C1Nc2ccc(-c3cc(C(F)(F)F)cc(C(F)(F)F)c3)cc2C(=O)N2CCN(C(=O)COc3ccc(OC(F)(F)F)cc3I)C[C@@H]12 [compound 6641] the “EC50 (1)-(3)” value ([1]; 6641, individual experiments) was “Inactive”, the “EC50 (AVERAGE)” value ([1]; 6641, mean of 3) was “Inactive” and the “Emax (1)-(3)” value ([1]; individual experiments, FSK (2 µM) = 100% efficacy) was “Inactive”. The “Emax (AVERAGE)” value ([1]; mean (± SEM) of 3, FSK (2 µM) = 100% efficacy) was “Inactive; also recorded: did not stimulate cAMP production”, the Alp gene expression [2] was “No significant differences and 0.88 and 1.46 and 1.09 and 1.63 and 1.11 and 1.2 and 1.13 and 0.7 and 1.17 and 0.71 and 0.82 and 1.61 and 1.28 and 1.02” and the Col1a1 gene expression [2] was “No significant differences and 1.04 and 1.44 and 0.9 and 1.62 and 0.96 and 1.32 and 0.82 and 1.12 and 1.24 and 0.81 and 0.88 and 1.29 and 0.93”. The Osteocalcin gene expression [2] was “significant increase and 1.47 and 0.79 and 1.35 and 1.31 and 2.35 and 1.34 and 2.19 and 1.5 and 2.42 and 1.3 and 1.4 and 1.23 and 2.1 and 1.83 and 1.39”, the Runx2 gene expression [2] was “decrease and 0.41 and 0.71 and 0.95 and 0.75 and 1.16 and 0.6 and 0.57 and 0.72 and 0.73 and 0.89 and 0.83 and 1.42 and 1.07 and 0.66” and the “body or organ (liver, kidney) weight vs vehicle” value [3] was “No changes”. For the same compound, the “histological analysis of livers and kidneys” value [3] was “did not show any changes in cell morphology”, the “Left Kidney weight” value (Left Kidney, after 8-week oral treatment, individual mice) was 0.4912 and 0.4654 and 0.4705 and 0.5626 and 0.5314 and 0.5304 and 0.5976 and 0.5317 and 0.5347 and 0.5015 and 0.5707 and 0.5055 and 0.4688 and 0.4947 and 0.545 and the Liver weight (Liver, after 8-week oral treatment, individual mice) was 4.014 and 3.487 and 3.8235 and 3.754 and 3.582 and 3.355 and 4.71 and 3.617 and 3.875 and 3.519 and 3.904 and 3.698 and 3.86 and 3.544 and 3.928. The “Right Kidney weight” value (Right Kidney, after 8-week oral treatment, individual mice) was 0.5699 and 0.5019 and 0.5734 (2×) and 0.5889 and 0.5665 and 0.5265 and 0.5931 and 0.5579 and 0.5793 and 0.6089 and 0.5717 and 0.4908 and 0.5191 and 0.5352, the “Body weight” value (day 18, individual mice) was 19.85 g and 17.73 g and 17.98 g and 16.95 g and 18.38 g and 18.83 g and 21.28 g and 19.38 g and 20.27 g and 20.03 g and 16.32 g and 20.68 g and 19.45 g and 18.87 g and 17.54 g and the “Body weight” value (day 21, individual mice) was 19.93 g and 18.04 g and 17.94 g and 17.08 g and 17.98 g and 19.29 g and 21.67 g and 19.33 g and 20.02 g and 19.71 g and 16.43 g and 21.48 g and 19.84 g and 19.3 g and 18.07 g. For the same compound, the “Body weight” value (day 25, individual mice) was 20.1 g and 18.01 g and 17.55 g and 16.7 g and 18.33 g and 19.06 g and 21.44 g and 20.16 g and 20.44 g and 20.28 g and 16.93 g and 21.61 g and 19.73 g and 19.34 g and 18.63 g, the “Body weight” value (day 28, individual mice) was 19.97 g and 17.83 g and 17.52 g and 17.01 g and 18.4 g and 18.9 g and 22.31 g and 19.96 g and 21.2 g and 20.35 g and 17.55 g and 21.63 g and 20.55 g and 19.62 g and 18.84 g and the “Body weight” value (day 32, individual mice) was 20.73 g and 18.54 g and 18.23 g and 16.58 g and 19.25 g and 19.78 g and 22.35 g and 20.74 g (2×) and 21.45 g and 17.18 g and 20.72 g and 20.18 g and 19.42 g and 18.61 g. For the same compound, the “Body weight” value (day 35, individual mice) was 20.28 g and 18.14 g and 18.03 g and 17.15 g and 19.17 g and 19.71 g and 22.83 g and 20.57 g and 20.92 g and 19.8 g and 17.11 g and 22.36 g and 20.66 g and 20.25 g and 18.8 g and the “Body weight” value (day 39, individual mice) was 20.17 g and 18.1 g and 17.93 g and 17.63 g and 19.64 g and 20.24 g and 22.43 g and 20.72 g and 21.92 g and 20.95 g.
